Measured values reported in PubChem BioAssay AID1259407 (Chemical Carcinogenesis Research Information System (CCRIS), 2018).
Calls of active or inactive are those of the source. How the calls were made is not given here.

Test system: CCRIS mutagenicity, Ames/micronucleus/aberration tests
Assay: CCRIS mutagenicity studies
[1] = Test System: AMES SALMONELLA TYPHIMURIUM, Strain/Indicator: TA98, Metabolic Activation: NONE, Method: STANDARD PLATE
[2] = Test System: AMES SALMONELLA TYPHIMURIUM, Strain/Indicator: TA100, Metabolic Activation: NONE, Method: PREINCUBATION
[3] = Test System: AMES SALMONELLA TYPHIMURIUM, Strain/Indicator: TA100, Metabolic Activation: NONE, Method: STANDARD PLATE
[4] = Test System: AMES SALMONELLA TYPHIMURIUM, Strain/Indicator: TA100, Metabolic Activation: RAT, LIVER, S-9, AROCLOR 1254, Method: STANDARD PLATE
[5] = Test System: AMES SALMONELLA TYPHIMURIUM, Strain/Indicator: TA102, Metabolic Activation: NONE, Method: STANDARD PLATE
[6] = Test System: AMES SALMONELLA TYPHIMURIUM, Strain/Indicator: TA102, Metabolic Activation: RAT, LIVER, S-9, AROCLOR 1254, Method: STANDARD PLATE
[7] = Test System: AMES SALMONELLA TYPHIMURIUM, Strain/Indicator: TA1535, Metabolic Activation: NONE, Method: STANDARD PLATE
[8] = Test System: AMES SALMONELLA TYPHIMURIUM, Strain/Indicator: TA1535, Metabolic Activation: RAT, LIVER, S-9, AROCLOR 1254, Method: STANDARD PLATE
[9] = Test System: AMES SALMONELLA TYPHIMURIUM, Strain/Indicator: TA97, Metabolic Activation: NONE, Method: STANDARD PLATE

Measured: mutagenic call

O=[N+]([O-])c1ccc(Oc2c(Cl)cc(Cl)cc2Cl)cc1
active: Test System: AMES SALMONELLA TYPHIMURIUM, Strain/Indicator: YG1021, Metabolic Activation: RAT, LIVER, S-9, PCB, Method: PREINCUBATION active; positive | Test System: AMES SALMONELLA TYPHIMURIUM, Strain/Indicator: YG1024, Metabolic Activation: NONE, Method: PREINCUBATION active; positive | Test System: AMES SALMONELLA TYPHIMURIUM, Strain/Indicator: YG1024, Metabolic Activation: RAT LIVER S-9 (10%), PHENOBARBITAL AND 5,6-BENZOFLAVONE, Method: PREINCUBATION active; positive | Test System: AMES SALMONELLA TYPHIMURIUM, Strain/Indicator: YG1024, Metabolic Activation: RAT, LIVER, S-9, PHENOBARBITAL AND 5,6-BENZOFLAVONE, Method: PREINCUBATION active; positive | Test System: AMES SALMONELLA TYPHIMURIUM, Strain/Indicator: YG1026, Metabolic Activation: RAT, LIVER, S-9, PCB, Method: PREINCUBATION active; positive | Test System: AMES SALMONELLA TYPHIMURIUM, Strain/Indicator: YG1029, Metabolic Activation: NONE, Method: STANDARD PLATE active; positive | Test System: AMES SALMONELLA TYPHIMURIUM, Strain/Indicator: YG1029, Metabolic Activation: RAT LIVER S-9 (10%), PHENOBARBITAL AND 5,6-BENZOFLAVONE, Method: PREINCUBATION active; positive | Test System: AMES SALMONELLA TYPHIMURIUM, Strain/Indicator: YG1029, Metabolic Activation: RAT, LIVER, S-9, AROCLOR 1254, Method: STANDARD PLATE active; positive | Test System: AMES SALMONELLA TYPHIMURIUM, Strain/Indicator: YG1029, Metabolic Activation: RAT, LIVER, S-9, PHENOBARBITAL AND 5,6-BENZOFLAVONE, Method: PREINCUBATION active; positive | Test System: AMES SALMONELLA TYPHIMURIUM, Strain/Indicator: YG1029, Metabolic Activation: S-9, Method: STANDARD PLATE active; positive
inactive: Test System: AMES SALMONELLA TYPHIMURIUM, Strain/Indicator: TA98, Metabolic Activation: NONE, Method: PREINCUBATION inactive; negative | [1] inactive; negative | Test System: AMES SALMONELLA TYPHIMURIUM, Strain/Indicator: TA98, Metabolic Activation: RAT LIVER S-9 (10%), PHENOBARBITAL AND 5,6-BENZOFLAVONE, Method: PREINCUBATION inactive; negative | Test System: AMES SALMONELLA TYPHIMURIUM, Strain/Indicator: TA98, Metabolic Activation: S-9, Method: STANDARD PLATE inactive; negative | [2] inactive; negative | [3] inactive; negative | Test System: AMES SALMONELLA TYPHIMURIUM, Strain/Indicator: TA100, Metabolic Activation: RAT LIVER S-9 (10%), PHENOBARBITAL AND 5,6-BENZOFLAVONE, Method: PREINCUBATION inactive; negative | Test System: AMES SALMONELLA TYPHIMURIUM, Strain/Indicator: TA100, Metabolic Activation: S-9, Method: STANDARD PLATE inactive; negative | Test System: AMES SALMONELLA TYPHIMURIUM, Strain/Indicator: YG1021, Metabolic Activation: NONE, Method: STANDARD PLATE inactive; negative | Test System: AMES SALMONELLA TYPHIMURIUM, Strain/Indicator: YG1021, Metabolic Activation: RAT LIVER S-9 (10%), PHENOBARBITAL AND 5,6-BENZOFLAVONE, Method: PREINCUBATION inactive; negative | Test System: AMES SALMONELLA TYPHIMURIUM, Strain/Indicator: YG1021, Metabolic Activation: S-9, Method: STANDARD PLATE inactive; negative | Test System: AMES SALMONELLA TYPHIMURIUM, Strain/Indicator: YG1024, Metabolic Activation: NONE, Method: STANDARD PLATE inactive; negative | Test System: AMES SALMONELLA TYPHIMURIUM, Strain/Indicator: YG1024, Metabolic Activation: S-9, Method: STANDARD PLATE inactive; negative | Test System: AMES SALMONELLA TYPHIMURIUM, Strain/Indicator: YG1026, Metabolic Activation: NONE, Method: STANDARD PLATE inactive; negative | Test System: AMES SALMONELLA TYPHIMURIUM, Strain/Indicator: YG1026, Metabolic Activation: RAT LIVER S-9 (10%), PHENOBARBITAL AND 5,6-BENZOFLAVONE, Method: PREINCUBATION inactive; negative | Test System: AMES SALMONELLA TYPHIMURIUM, Strain/Indicator: YG1026, Metabolic Activation: S-9, Method: STANDARD PLATE inactive; negative | Test System: AMES SALMONELLA TYPHIMURIUM, Strain/Indicator: YG1029, Metabolic Activation: NONE, Method: PREINCUBATION inactive; negative

CC(C)N(N)C(C)C
inactive: [3] inactive; negative | [4] inactive; negative | [5] inactive; negative | [6] inactive; negative | [7] inactive; negative
active: [8] active; positive

CC1=C2C(=CO[C@H](C)[C@H]2C)C(=O)C(C(=O)O)=C1O
inactive: [9] inactive; negative | Test System: AMES SALMONELLA TYPHIMURIUM, Strain/Indicator: TA97, Metabolic Activation: RAT LIVER S-9, AROCLOR 1254, Method: STANDARD PLATE inactive; negative | [1] inactive; negative | Test System: AMES SALMONELLA TYPHIMURIUM, Strain/Indicator: TA98, Metabolic Activation: RAT LIVER S-9, AROCLOR 1254, Method: STANDARD PLATE inactive; negative | [2] inactive; negative | [3] inactive; negative | Test System: AMES SALMONELLA TYPHIMURIUM, Strain/Indicator: TA100, Metabolic Activation: RAT LIVER S-9, AROCLOR 1254, Method: STANDARD PLATE inactive; negative | Test System: AMES SALMONELLA TYPHIMURIUM, Strain/Indicator: TA100, Metabolic Activation: RAT, LIVER, S-9, PHENOBARBITAL, Method: PREINCUBATION inactive; negative | [5] inactive; negative | [6] inactive; negative | [7] inactive; negative | Test System: AMES SALMONELLA TYPHIMURIUM, Strain/Indicator: TA1535, Metabolic Activation: RAT LIVER S-9, AROCLOR 1254, Method: STANDARD PLATE inactive; negative | Test System: AMES SALMONELLA TYPHIMURIUM, Strain/Indicator: TA1537, Metabolic Activation: NONE, Method: STANDARD PLATE inactive; negative | Test System: AMES SALMONELLA TYPHIMURIUM, Strain/Indicator: TA1537, Metabolic Activation: RAT LIVER S-9, AROCLOR 1254, Method: STANDARD PLATE inactive; negative
active: End Point: In vivo chromosomal aberrations, Test System: Bone marrow cells, Species: Mouse, Strain/Sex: Balb/C / Male, Route: Intraperitoneal active; positive (structural changes)

Nc1ncnc2c1ncn2[C@@H]1O[C@H](CO)[C@@H](O)[C@H]1O
inactive: [9] inactive; negative | Test System: AMES SALMONELLA TYPHIMURIUM, Strain/Indicator: TA97, Metabolic Activation: RAT, LIVER, S-9, AROCLOR 1254, Method: STANDARD PLATE inactive; negative | [1] inactive; negative | Test System: AMES SALMONELLA TYPHIMURIUM, Strain/Indicator: TA98, Metabolic Activation: RAT, LIVER, S-9, AROCLOR 1254, Method: STANDARD PLATE inactive; negative | [3] inactive; negative | [4] inactive; negative | [7] inactive; negative | [8] inactive; negative | Test System: AMES SALMONELLA TYPHIMURIUM, Strain/Indicator: TA1538, Metabolic Activation: NONE, Method: STANDARD PLATE inactive; negative | Test System: AMES SALMONELLA TYPHIMURIUM, Strain/Indicator: TA1538, Metabolic Activation: RAT, LIVER, S-9, AROCLOR 1254, Method: STANDARD PLATE inactive; negative | Test System: CHINESE HAMSTER OVARY, Strain/Indicator: CHO-KL-BH4 (HGPRT), Metabolic Activation: NONE inactive; negative | Test System: CHINESE HAMSTER OVARY, Strain/Indicator: CHO-KL-BH4 (HGPRT), Metabolic Activation: RAT, LIVER, S-9, AROCLOR 1254 inactive; negative

CC(C)[C@@](O)(C(=O)OC[C@@H]1CCN2CCC[C@H]12)[C@@H](C)O
inactive: Test System: AMES SALMONELLA TYPHIMURIUM, Strain/Indicator: TA100, Metabolic Activation: HAMSTER, LIVER, S-9, PCB, Method: PREINCUBATION inactive; negative | Test System: AMES SALMONELLA TYPHIMURIUM, Strain/Indicator: TA100, Metabolic Activation: RAT, LIVER, S-9, PCB, Method: PREINCUBATION inactive; negative
